Data on 28 compounds can be found in US6040331A, “Nerve cell protective agents” (Mochida Pharmaceutical Co., Ltd., priority 1996, dated 2000).

≈ marks a conversion by molar mass, not a printed value. Counter-ions that a name gives are not always drawn. *1 amine or outer side, *2 acyl side, *3 side chain or, on linkers, in order; H or OH if unused. Where a SMILES comes first, the peptide text is derived from it. Bridges are numbered along the chain shown (N, C = ends). Roman numbers before positions name the chains, in order. [ ]: non-standard residue; d: D form. Actinocin(9to1) = Cc1c2oc3c(C)ccc(C(=O)[*:1])c3nc-2c(C(=O)[*:2])c(N)c1=O; NMeV = CN[C@H](C(=O)O)C(C)C; Sar = CNCC(=O)O

One assay deals with pyramidal cells in the hippocampus CA1 region. The experiment in a line: Effectiveness in gerbil model of delayed neuronal death (damage score, 4 min ischemia). It counts as in vivo. The conditions noted are these: 2 mg/kg, carotid arteries 5 min before ischemia; score 0-4; ischemic control 2.9 ± 0.3; mean ± standard error (Table 3-1). Here is the method:
Specifically, the cervical part of a gerbil under anesthesia by halothane inhalation was incised along the median line to expose the carotid artery on both sides, which were occuluded with clips for 4 min and thereafter brought back to patency. After suturing the incised part, the anesthetization was turned off and the animal was brought back to keeping under normal condition. Three days after loading of cerebral ischemia, the gerbil was anesthetized by administering pentobarbital, fixed by transcardiac formalin perfusion and had the brain isolated. A coronary slice including the fimbria hippocampi was prepared from the isolated brain and stained with Cresyl Violet. The pyramidal cells in the hippocampus CA1 region were examined under an optical microscope and the degree of damage was rated by the following scores: 0, no damage; 1, slight damage; 2, moderate damage; 3, significant damage; 4, total damage. Each test compound was administered through the carotid arteries 5 min before ischemia.
Turning to `NC1CCc2c(-c3ccccc3)[nH]c3ccc(Br)c1c23` (stereo not shown) [Example 87, 5-amino-6-bromo-2-phenyl-1,3,4,5-tetrahydrobenz[cd]indole], the “Score of damage to hippocampus CA1” value was 1.9 ± 0.6.

The same assay, now with this note: 5 mg/kg, carotid arteries 5 min before ischemia; score 0-4; ischemic control 2.9 ± 0.3; mean ± standard error (Table 3-1).
As to `CNC1CCc2c(-c3ccccc3)[nH]c3cccc1c23` (stereo not shown) [Example 130, 5-(N-methylamino)-2-phenyl-1,3,4,5-tetrahydrobenz[cd]indole], the “Score of damage to hippocampus CA1” value stood at 1.9 ± 0.1.

Staying with this assay, now noted: 10 mg/kg, carotid arteries 5 min before ischemia; score 0-4; ischemic control 3.5 ± 0.4; mean ± standard error (Table 3-2).
For `Cl.Cn1c(-c2ccccc2F)c2c3c(cccc31)C(N1CCOCC1)CC2` (stereo not shown) [Example 240, 2-(2-fluorophenyl)-1-methyl-5-morpholino-1,3,4,5-tetrahydrobenz[cd]indole hydrochloride], the “Score of damage to hippocampus CA1” value amounted to 2.1 ± 0.5.

For a further assay, the system named is neurons isolated from the cerebrum. The experiment in a line: Veratrine-induced neuronal death suppressing action (MTT). It counts as cell-based, embryonic day 16 rats. To be noted: Rattus norvegicus, Neuron; veratrine 0.35 mM; MTT after 24 h; probit method; read-out: IC50 (50% suppression of veratrine-induced neuronal death). Here is the method: The action of compounds to suppress the death of neurons induced by veratrine was evaluated in terms of their effectiveness in suppressing the neuronal death as induced by direct addition of veratrine. An experiment was run by a method adapted from the method of Powells et al., J. Pharmacol. Exp. Therapeutics, 255, 1117, 1987. Specifically, neurons were isolated from the cerebrum of embryonic day 16 rats in the usual manner, suspended in a MEM medium containing 10% fetal bovine serum, seeded onto a polylysine-coated culture plate at a density of 2.5×10^5 cells per square centimeter and cultivated at 37° C. in 95% air+5% CO2. Starting on the fifth day of cultivation, treatment was conducted with 10 μM of cytosine arabinoside for 2 days and the cultivation was continued until the 12th day, when a test was run as follows. The cells were treated with a buffer solution containing veratrine (0.35 mM) and a test compound, replaced in a serum-containing medium and cultivated for another 24 h. Subsequently, the number of viable cells was determined by calorimetric quantification using 3-(4,5-dimethylthiazol-2-yl)-2,5-diphenyltetrazolium bromide (MTT). The percent suppression of neuronal death by the test compound was determined by the following formula:
(§1) 100×(ODtest-ODcontrol)/(ODnormal-ODcontrol) (%)
where ODtest is the number of cells (absorbance) in the group of addition of veratrine+test compound, ODcontrol is the number of cells (absorbance) in a control group of addition of veratrine, and ODnormal is the number of cells (absorbance) in a control (normal) group without addition of veratrine.
In addition, IC50 values indicating the effectiveness in achieving 50% suppression of neuronal death were calculated by the probit method on the basis of the result from more than one concentration.
As a reminder, the IC50 is the concentration that gives 50% inhibition. Consider `COC(=O)C1CCN(C2CCc3c(-c4ccccc4)[nH]c4cccc2c34)CC1.Cl` (stereo not shown) [Example 225, 5-(4-methoxycarbonylpiperidino)-2-phenyl-1,3,4,5-tetrahydrobenz[cd]indole hydrochloride], for which the IC50 stood at 2.2 µg/mL.
As for `Cl.Cn1c(-c2ccccc2Cl)c2c3c(cccc31)C(N1CCOCC1)CC2` (stereo not shown) [Example 239, 2-(2-chlorophenyl)-1-methyl-5-morpholino-1,3,4,5-tetrahydrobenz[cd]indole hydrochloride], the IC50 was 2.2 µg/mL.
Still for that read-out and setting: for `CCCN(CCC)C1CCc2c(-c3ccccc3)[nH]c3cccc1c23` (stereo not shown) [Example 150, 5-(N,N-dipropylamino)-2-phenyl-1,3,4,5-tetrahydrobenz[cd]indole] the value was 1.2 µg/mL (≈ 3.61 µM); for `NC1CCc2c(-c3ccccc3)[nH]c3ccc([N+](=O)[O-])c1c23` (stereo not shown) [Example 90, 5-amino-6-nitro-2-phenyl-1,3,4,5-tetrahydrobenz[cd]indole], 0.7 µg/mL (≈ 2.39 µM); for `COc1ccc2[nH]c(-c3ccccc3)c3c2c1C(N)CC3` (stereo not shown) [Example 110, 5-amino-6-methoxy-2-phenyl-1,3,4,5-tetrahydrobenz[cd]indole], 1.8 µg/mL (≈ 6.47 µM).
Still for that read-out and setting: for `Cc1cc2c3c(c(-c4ccccc4)[nH]c3c1)CCC2N` (stereo not shown) [Example 113, 5-amino-7-methyl-2-phenyl-1,3,4,5-tetrahydrobenz[cd]indole] the value was 0.7 µg/mL (≈ 2.67 µM); for `NC1CCc2c(-c3ccc(F)cc3)[nH]c3cccc1c23` (stereo not shown) [Example 95, 5-amino-2-(4-fluorophenyl)-1,3,4,5-tetrahydrobenz[cd]indole], 3.1 µg/mL (≈ 11.6 µM).
On to `COc1ccccc1-c1[nH]c2cccc3c2c1CCC3N` (stereo not shown) [Example 184, 5-amino-2-(2-methoxyphenyl)-1,3,4,5-tetrahydrobenz[cd]indole], for which the IC50 was 0.8 µg/mL (≈ 2.87 µM).
On to `COC(=O)c1ccc(-c2[nH]c3c(Cl)ccc4c3c2CCC4N)cc1` (stereo not shown) [Example 171, 5-amino-8-chloro-2-(4-methoxycarbonylphenyl)-1,3,4,5-tetrahydrobenz[cd]indole], for which the IC50 is 1.9 µg/mL (≈ 5.57 µM).
On the same count and under the same terms, the same measure for `NC1CCc2c(-c3ccccc3)[nH]c3ccc(O)c1c23` (stereo not shown) [Example 174, 5-amino-6-hydroxy-2-phenyl-1,3,4,5-tetrahydrobenz[cd]indole]: 3.4 µg/mL (≈ 12.9 µM).

The next assay shares this test system. The experiment in a line: Naturally occurring neuronal death suppressing action (serum-free cultivation, Crystal Violet). The format is cell-based, embryonic day 16 rats. To be noted: Rattus norvegicus, Neuron, 72 h; 0.3 μg/ml; serum-free, 3 days; read-out: Suppression of Naturally Occurring Neuronal Death. How it is done:
The action of compounds to suppress the naturally occurring death of neurons was evaluated in terms of their effectiveness in suppressing or inhibiting the naturally occurring death of neurons as induced by exposing cultured neurons to serum-free cultivation conditions. An experiment was run by a method adapted from the method of Shimojo et al., Neurosci. Lett., 151, 170, 1993. Specifically, neurons were isolated from the cerebrum of embryonic day 16 rats in the usual manner, suspended in a DMEM/F12 medium containing 1% fetal bovine serum, seeded onto a polylysine-coated culture plate at a density of 5×10^4 cells per square centimeter and cultivated at 37° C. in 95% air+5% CO2. After one day of culture, the medium was replaced with a serum-free medium containing a compound to be tested and the cultivation was continued for 3 more days. Subsequently, the cells were fixed with 1% glutaraldehyde and their number was determined by calorimetric quantification using Crystal Violet (Anal. Biochem., 182, 16-19, 1989). The percent suppression of neuronal death by the test compound was determined by the following formula:
as §1
where ODtest is the number of cells (absorbance) in the group of addition of test compound after serum removal, ODcontrol is the number of cells (absorbance) in a control group after serum removal, and ODnormal is the number of cells (absorbance) in a control (normal) group without serum removal.
On to `NC1CCc2c(-c3ccccc3O)[nH]c3cccc1c23` (stereo not shown) [Example 185, 5-amino-2-(2-hydroxyphenyl)-1,3,4,5-tetrahydrobenz[cd]indole], for which the inhibition at 0.3 µg/mL stood at 100%.
Turning to `Cc1ccc(-c2[nH]c3cccc4c3c2CCC4N)cc1` (stereo not shown) [Example 99, 5-amino-2-(4-methylphenyl)-1,3,4,5-tetrahydrobenz[cd]indole], the inhibition at 0.3 µg/mL amounted to 59%.
On the same count and under the same terms, the same measure for `NC1CCc2c(-c3ccc(Cl)cc3)[nH]c3c(Cl)ccc1c23` (stereo not shown) [Example 103, 5-amino-8-chloro-2-(4-chlorophenyl)-1,3,4,5-tetrahydrobenz[cd]indole]: 56%; for `NC1CCc2c(-c3ccccc3)[nH]c3ccc(O)c1c23` (stereo not shown) [Example 174, 5-amino-6-hydroxy-2-phenyl-1,3,4,5-tetrahydrobenz[cd]indole]: 64%.

Still in this assay, the particulars now being: Rattus norvegicus, Neuron, 72 h; 1.0 μg/ml; serum-free, 3 days; read-out: Suppression of Naturally Occurring Neuronal Death.
Take `CNC1CCc2c(-c3ccccc3)[nH]c3cccc1c23` (stereo not shown) [Example 130, 5-(N-methylamino)-2-phenyl-1,3,4,5-tetrahydrobenz[cd]indole]: the inhibition at 1 µg/mL was found to be 76%.
As to `c1ccc(CNC2CCc3c(-c4ccccc4)[nH]c4cccc2c34)cc1` (stereo not shown) [Example 153, 5-(N-benzylamino)-2-phenyl-1,3,4,5-tetrahydrobenz[cd]indole], the inhibition at 1 µg/mL came to 100%.
For the compound `c1ccc(-c2[nH]c3cccc4c3c2CCC4N2CCOCC2)cc1` (stereo not shown) [Example 148, 5-morpholino-2-phenyl-1,3,4,5-tetrahydrobenz[cd]indole], the inhibition at 1 µg/mL was 65%.
On to `NC1CCc2c(-c3ccc(Cl)cc3)[nH]c3cccc1c23` (stereo not shown) [Example 96, 5-amino-2-(4-chlorophenyl)-1,3,4,5-tetrahydrobenz[cd]indole], for which the inhibition at 1 µg/mL turned out to be 37%.
Still for that read-out and setting: the same measure for `OC1CCN(C2CCc3c(-c4ccccc4)[nH]c4cccc2c34)CC1` (stereo not shown) [Example 216, 5-(4-hydroxypiperidino)-2-phenyl-1,3,4,5-tetrahydrobenz[cd]indole]: 75%.

The assay is the same for the next values; noted with them: Rattus norvegicus, Neuron, 72 h; 3.0 μg/ml; serum-free, 3 days; read-out: Suppression of Naturally Occurring Neuronal Death.
Consider `CC(=O)NC1CCc2c(-c3ccccc3)[nH]c3cccc1c23` (stereo not shown) [Example 124, 5-(N-acetylamino)-2-phenyl-1,3,4,5-tetrahydrobenz[cd]indole], for which the inhibition at 3 µg/mL came to 23%.
As to `CCOC(=O)CNC1CCc2c(-c3ccccc3)n(C)c3cccc1c23` (stereo not shown) [Example 244, 5-[N-(ethoxycarbonylmethyl)]amino-1-methyl-2-phenyl-1,3,4,5-tetrahydrobenz[cd]indole hydrochloride], the inhibition at 3 µg/mL came to 57%.
Same read-out and setting: the same measure for `c1ccc(-c2[nH]c3cccc4c3c2CCC4N2CCCCC2)cc1` (stereo not shown) [Example 151, 2-phenyl-5-piperidino-1,3,4,5-tetrahydrobenz[cd]indole]: 98%; for `Cn1c(-c2ccccc2)c2c3c(cccc31)C(NCC(=O)O)CC2` (stereo not shown) [Example 223, 5-[N-(carboxymethyl)]amino-1-methyl-2-phenyl-1,3,4,5-tetrahydrobenz[cd]indole hydrochloride]: 81%.
With `NC1CCc2c(-c3ccccc3)[nH]c3ccc(Br)c1c23` (stereo not shown) [Example 87, 5-amino-6-bromo-2-phenyl-1,3,4,5-tetrahydrobenz[cd]indole], the inhibition at 3 µg/mL amounted to 84%.
On to `CN(C)C1CCc2c(-c3ccccc3)[nH]c3cccc1c23` (stereo not shown) [Example 121, 5-(N,N-dimethylamino)2-phenyl-1,3,4,5-tetrahydrobenz[cd]indole], for which the inhibition at 3 µg/mL is 72%.

The assay is the same for the next values; noted with them: serum-free condition.
With `Cc1c2oc3c(C)ccc(C(=O)N[C@@H]4C(=O)N[C@H](C(C)C)C(=O)N5CCC[C@H]5C(=O)N(C)CC(=O)N(C)[C@@H](C(C)C)C(=O)O[C@@H]4C)c3nc-2c(C(=O)N[C@@H]2C(=O)N[C@H](C(C)C)C(=O)N3CCC[C@H]3C(=O)N(C)CC(=O)N(C)[C@@H](C(C)C)C(=O)O[C@@H]2C)c(N)c1=O` [actinomycin D, reference compound] (I: T[dV]P[Sar][NMeV] / II: T[dV]P[Sar][NMeV]; ester I:1-I:C, II:1-II:C; linker I:N-II:N via Actinocin(9to1)), the “suppression of death of neurons under the serum-free condition (in words)” value is “suppressed”.
Take `O=C(O)C1=CC(=C(c2ccc(O)c(C(=O)O)c2)c2ccc(O)c(C(=O)O)c2)C=CC1=O` [aurin tricarboxylic acid, reference compound]: the “suppression of death of neurons under the serum-free condition (in words)” value is recorded as “suppressed”.
Regarding `C[C@@H]1C[C@@H]([C@H](O)CC2CC(=O)NC(=O)C2)C(=O)[C@@H](C)C1` [cycloheximide, reference compound], the “suppression of death of neurons under the serum-free condition (in words)” value was “suppressed”.
